# According to ChEMBL document CHEMBL1909294, “Translating clinical findings into knowledge in drug safety evaluation--drug induced liver injury prediction system (DILIps)” (PLoS Comput Biol, 2011):
# How the values were obtained:
# Hepatotoxicity [1] = system: Hepatotoxicity;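 for HepSE bilirubinemia: bilirubinemia hepatic side effect score drawn from the DILIps training data, a prediction system for drug-induced liver injury; call rule not given here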;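 for HepSE cholecystitis: Cholecystitis-related hepatic side effect score drawn from the DILIps (drug-induced liver injury prediction) training data set; call rule not given here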;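 for HepSE cholelithiasis: hepatic side effect score for cholelithiasis, drawn from the DILIps training data for predicting drug-induced liver injury; call rule not given here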;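 for HepSE cirrhosis: cirrhosis hepatic side effect score taken from the DILIps (drug-induced liver injury prediction) training set; call rule not given here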;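 for HepSE elevated liver function tests: hepatic side effect score for raised liver function tests, as recorded in the DILIps training set used for predicting drug-induced liver injury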; for HepSE hepatic failure: call rule not given here;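 for HepSE hepatomegaly: hepatic side effect score for hepatomegaly, taken from the training set of the DILIps drug-induced liver injury prediction system; call rule not given here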
# Hepatotoxicity [2] = system: Hepatotoxicity; remark: listed apart in the source;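 for HepSE bilirubinemia: bilirubinemia hepatic side effect score drawn from the DILIps training data, a prediction system for drug-induced liver injury; call rule not given here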;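 for HepSE cholecystitis: Cholecystitis-related hepatic side effect score drawn from the DILIps (drug-induced liver injury prediction) training data set; call rule not given here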;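 for HepSE cholelithiasis: hepatic side effect score for cholelithiasis, drawn from the DILIps training data for predicting drug-induced liver injury; call rule not given here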;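 for HepSE cirrhosis: cirrhosis hepatic side effect score taken from the DILIps (drug-induced liver injury prediction) training set; call rule not given here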;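 for HepSE elevated liver function tests: hepatic side effect score for raised liver function tests, as recorded in the DILIps training set used for predicting drug-induced liver injury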; for HepSE hepatic failure: call rule not given here
# Hepatotoxicity [3] = system: Hepatotoxicity; remark: listed apart in the source;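 for HepSE bilirubinemia: bilirubinemia hepatic side effect score drawn from the DILIps training data, a prediction system for drug-induced liver injury; call rule not given here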;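 for HepSE cholecystitis: Cholecystitis-related hepatic side effect score drawn from the DILIps (drug-induced liver injury prediction) training data set; call rule not given here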;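 for HepSE cholelithiasis: hepatic side effect score for cholelithiasis, drawn from the DILIps training data for predicting drug-induced liver injury; call rule not given here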;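 for HepSE cirrhosis: cirrhosis hepatic side effect score taken from the DILIps (drug-induced liver injury prediction) training set; call rule not given here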;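 for HepSE elevated liver function tests: hepatic side effect score for raised liver function tests, as recorded in the DILIps training set used for predicting drug-induced liver injury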; for HepSE hepatic failure: call rule not given here
# Hepatotoxicity [4] = system: Hepatotoxicity; remark: listed apart in the source;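 for HepSE bilirubinemia: bilirubinemia hepatic side effect score drawn from the DILIps training data, a prediction system for drug-induced liver injury; call rule not given here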;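 for HepSE cholecystitis: Cholecystitis-related hepatic side effect score drawn from the DILIps (drug-induced liver injury prediction) training data set; call rule not given here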;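 for HepSE cholelithiasis: hepatic side effect score for cholelithiasis, drawn from the DILIps training data for predicting drug-induced liver injury; call rule not given here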;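 for HepSE cirrhosis: cirrhosis hepatic side effect score taken from the DILIps (drug-induced liver injury prediction) training set; call rule not given here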;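 for HepSE elevated liver function tests: hepatic side effect score for raised liver function tests, as recorded in the DILIps training set used for predicting drug-induced liver injury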; for HepSE hepatic failure: call rule not given here
# Hepatotoxicity [5] = system: Hepatotoxicity; remark: listed apart in the source; for HepSE hepatic failure: call rule not given here
# Hepatotoxicity [6] = system: Hepatotoxicity; remark: listed apart in the source; for HepSE hepatic failure: call rule not given here
# Hepatotoxicity [7] = system: Hepatotoxicity; remark: listed apart in the source
# Hepatotoxicity [8] = system: Hepatotoxicity; remark: listed apart in the source
# Hepatotoxicity [9] = system: Hepatotoxicity; remark: listed apart in the source
# Hepatotoxicity [10] = system: Hepatotoxicity; remark: listed apart in the source
# Hepatotoxicity [11] = system: Hepatotoxicity; remark: listed apart in the source
# Hepatotoxicity [12] = system: Hepatotoxicity; remark: listed apart in the source
# Hepatotoxicity [13] = system: Hepatotoxicity; remark: listed apart in the source
# Hepatotoxicity [14] = system: Hepatotoxicity; remark: listed apart in the source
Compound,HepSE_bilirubinemia (Hepatotoxicity [1]),HepSE_cholecystitis (Hepatotoxicity [2]),HepSE_cholelithiasis (Hepatotoxicity [3]),HepSE_cirrhosis (Hepatotoxicity [4]),HepSE_elevated liver function tests (Hepatotoxicity [5]),HepSE_hepatic failure (Hepatotoxicity [6]),HepSE_hepatic necrosis (Hepatotoxicity [7]),HepSE_hepatitis (Hepatotoxicity [8]),HepSE_hepatomegaly (Hepatotoxicity [9]),HepSE_jaundice (Hepatotoxicity [10]),HepSE_liver disease (Hepatotoxicity [11]),HepSE_liver fatty (Hepatotoxicity [12]),HepSE_liver function tests abnormal (Hepatotoxicity [13]),HepSE_Combined Scores (Hepatotoxicity [14]),also measured
Cn1nnc2c(C(N)=O)ncn2c1=O [TEMOZOLOMIDE],0,0,0,0,0,0,0,0,0,0,0,0,0,0,
O=c1[nH]c2ccccc2n1CCCN1CCC(n2c(=O)[nH]c3cc(Cl)ccc32)CC1 [DOMPERIDONE],0,0,0,0,0,0,0,0,0,0,0,0,0,0,
CCCCCc1cc(O)c2c(c1)OC(C)(C)[C@@H]1CCC(C)=C[C@@H]21 [DRONABINOL],0,0,0,0,0,0,0,0,0,0,0,0,0,0,
C[C@]12CC[C@H]3[C@@H](CCC4=CC(=O)CC[C@@]43C)[C@@H]1CC[C@@H]2O [TESTOSTERONE],0,0,0,0,0,0,0,0,0,1,0,0,1,2,
Nc1nc2c(ncn2COCCO)c(=O)[nH]1 [ACYCLOVIR],1,0,0,0,1,0,0,1,0,1,0,0,0,4,
O=C(O[C@@H]1C[C@@H]2C[C@H]3C[C@H](C1)N2CC3=O)c1c[nH]c2ccccc12 [DOLASETRON],1,0,0,0,0,0,0,0,0,0,1,0,0,2,
Cc1noc(NS(=O)(=O)c2ccc(N)cc2)c1C [SULFISOXAZOLE],0,0,0,0,0,0,0,1,0,1,0,0,0,2,
Clc1ccc2c(c1)C(c1ccccc1)=NCc1nncn1-2 [ESTAZOLAM],0,0,0,0,0,0,0,0,0,0,0,0,0,0,
CC(C)(C)C(=O)OCOP(=O)(COCCn1cnc2c(N)ncnc21)OCOC(=O)C(C)(C)C [ADEFOVIR DIPIVOXIL],0,0,0,0,0,1,0,0,0,0,0,0,0,1,
C[N+]1(C)[C@@H]2C[C@@H](OC(=O)C(O)(c3cccs3)c3cccs3)C[C@H]1[C@@H]1O[C@@H]12 [TIOTROPIUM],0,0,0,0,0,0,0,0,0,0,0,0,0,0,
Cc1c(C)c2c(c(C)c1O)CCC(C)(COc1ccc(CC3SC(=O)NC3=O)cc1)O2 (configuration not stated) [TROGLITAZONE],0,0,0,0,0,0,0,1,0,1,0,0,1,3,
NC1=NCC2c3ccccc3Cc3ccccc3N12 (configuration not stated) [EPINASTINE],,,,,,,,,,,,,,,HepSE_bilirubinemia (Hepatotoxicity [1]; Liver): 0; HepSE_cholecystitis (Hepatotoxicity [2]; Liver): 0; HepSE_cholelithiasis (Hepatotoxicity [3]; Liver): 0; HepSE_cirrhosis (Hepatotoxicity [4]; Liver): 0; HepSE_elevated liver function tests (Hepatotoxicity [5]; Liver): 0; HepSE_hepatic failure (Hepatotoxicity [6]; Liver): 0; HepSE_hepatic necrosis (Hepatotoxicity [7]; Liver): 0; HepSE_hepatitis (Hepatotoxicity [8]; Liver): 0; HepSE_hepatomegaly (Hepatotoxicity [9]; Liver): 0; HepSE_jaundice (Hepatotoxicity [10]; Liver): 0; HepSE_liver disease (Hepatotoxicity [11]; Liver): 0; HepSE_liver fatty (Hepatotoxicity [12]; Liver): 0; HepSE_liver function tests abnormal (Hepatotoxicity [13]; Liver): 0; HepSE_Combined Scores (Hepatotoxicity [14]; Liver): 0
COc1cc(CC2c3c(cc(OC)c(OC)c3OC)CC[N+]2(C)CCCOC(=O)CCC(=O)OCCC[N+]2(C)CCc3cc(OC)c(OC)c(OC)c3C2Cc2cc(OC)c(OC)c(OC)c2)cc(OC)c1OC (configuration not stated) [DOXACURIUM],0,0,0,0,0,0,0,0,0,0,0,0,0,0,
